Data from patent US9315491B2 (DEVELOPMENT CENTER FOR BIOTECHNOLOGY, priority 2009, dated 2016).

target: PI3K (p110α/p85α) (Homo sapiens (Human), UniProt P42336); assay: PI3K HTRF enzyme assay, p110α/p85α; type: biochemical; settings: read-out: % inhibition @ 500 nM p110α; compound at 500 nM, 10 μM ATP
Experimental: Recombinant PI3K (p110α/p85α) and PI3K (p110β/p85α) were from Millipore. […] Briefly, the compounds of interest dissolved in 100% DMSO were dispensed in all wells, following which the mixture of PIP2 and enzyme was added. PI3K (p110α/p85α) and PI3K (p110β/p85α) enzyme reactions were initiated in the presence of 10 μM and 100 μM ATP, respectively, and incubated for 30 min at room temperature. STOP solution prepared 2 hours prior to use was added to stop reactions, and mixed well. Detection solution prepared 2 hours prior to use was added, and incubated at room temperature for 17 hours in the dark. […] HTRF ration was calculated as follows: […]

Chain of PI3K (p110α/p85α) (P42336 whole entry, species assumed): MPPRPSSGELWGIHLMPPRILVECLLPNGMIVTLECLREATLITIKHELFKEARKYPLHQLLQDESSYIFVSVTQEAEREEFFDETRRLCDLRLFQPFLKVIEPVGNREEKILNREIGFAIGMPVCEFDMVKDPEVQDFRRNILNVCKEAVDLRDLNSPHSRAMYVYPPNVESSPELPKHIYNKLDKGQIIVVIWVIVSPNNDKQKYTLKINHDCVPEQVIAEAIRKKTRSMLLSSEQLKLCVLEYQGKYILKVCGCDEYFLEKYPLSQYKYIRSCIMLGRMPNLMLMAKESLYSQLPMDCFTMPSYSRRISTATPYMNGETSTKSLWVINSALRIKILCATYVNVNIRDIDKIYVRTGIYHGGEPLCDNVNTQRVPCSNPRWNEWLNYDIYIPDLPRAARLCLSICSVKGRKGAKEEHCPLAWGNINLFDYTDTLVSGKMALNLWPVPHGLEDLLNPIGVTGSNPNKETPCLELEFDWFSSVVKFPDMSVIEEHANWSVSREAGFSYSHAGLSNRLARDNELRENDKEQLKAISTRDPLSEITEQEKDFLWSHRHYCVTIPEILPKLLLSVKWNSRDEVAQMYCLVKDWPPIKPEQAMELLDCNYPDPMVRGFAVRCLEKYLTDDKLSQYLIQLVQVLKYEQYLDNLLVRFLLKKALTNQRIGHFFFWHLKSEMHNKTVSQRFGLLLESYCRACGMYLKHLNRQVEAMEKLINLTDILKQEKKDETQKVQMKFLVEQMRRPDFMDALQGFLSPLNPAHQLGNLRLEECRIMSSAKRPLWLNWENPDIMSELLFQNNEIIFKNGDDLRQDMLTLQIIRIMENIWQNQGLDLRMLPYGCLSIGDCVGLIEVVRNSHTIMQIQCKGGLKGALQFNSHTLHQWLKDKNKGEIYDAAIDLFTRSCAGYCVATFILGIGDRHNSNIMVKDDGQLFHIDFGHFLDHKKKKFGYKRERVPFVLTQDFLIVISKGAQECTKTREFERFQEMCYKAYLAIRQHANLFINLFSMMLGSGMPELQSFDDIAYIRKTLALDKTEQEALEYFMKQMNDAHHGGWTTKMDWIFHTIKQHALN
Chain of PI3K (p110α/p85α) (P27986 whole entry partner, species assumed): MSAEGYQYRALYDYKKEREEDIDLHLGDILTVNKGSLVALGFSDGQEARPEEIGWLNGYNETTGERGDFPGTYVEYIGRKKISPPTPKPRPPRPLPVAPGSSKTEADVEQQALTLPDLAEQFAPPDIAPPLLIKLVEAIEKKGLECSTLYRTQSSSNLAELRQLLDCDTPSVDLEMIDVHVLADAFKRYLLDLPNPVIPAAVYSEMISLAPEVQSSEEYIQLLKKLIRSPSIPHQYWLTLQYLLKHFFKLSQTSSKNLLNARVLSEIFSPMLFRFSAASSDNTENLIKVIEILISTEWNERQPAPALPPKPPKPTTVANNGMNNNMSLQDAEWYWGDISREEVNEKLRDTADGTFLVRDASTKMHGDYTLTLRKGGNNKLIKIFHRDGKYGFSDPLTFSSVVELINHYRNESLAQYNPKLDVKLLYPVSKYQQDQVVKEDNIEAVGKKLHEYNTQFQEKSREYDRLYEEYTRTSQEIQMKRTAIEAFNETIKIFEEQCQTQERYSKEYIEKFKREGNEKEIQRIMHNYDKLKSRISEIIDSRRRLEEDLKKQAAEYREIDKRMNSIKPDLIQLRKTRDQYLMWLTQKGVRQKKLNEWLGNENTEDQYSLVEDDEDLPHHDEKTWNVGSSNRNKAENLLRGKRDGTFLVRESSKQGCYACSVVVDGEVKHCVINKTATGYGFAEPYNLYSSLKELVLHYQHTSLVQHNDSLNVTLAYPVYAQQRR

| Compound | inhibition at 0.5 µM [%] |
| --- | --- |
| CSc1c(N2CCOCC2)nc(-c2ccc(NC(=O)Nc3ccccc3)cc2)nc1N1CCN(S(C)(=O)=O)CC1 [MTR-0173, 1-{4-[4-(4-Methanesulfonyl-piperazin-1-yl)-5-methylsulfanyl-6-morpholin-4-yl-pyrimidin-2-yl]-phenyl}-3-phenyl-urea] | 82.1 |
| CSc1c(Cl)nc(-c2ccc(NC(=O)Nc3cccnc3)cc2)nc1N1CCOCC1 [MTR-0197, 1-[4-(4-Chloro-5-methylsulfanyl-6-morpholin-4-yl-pyrimidin-2-yl)-phenyl]-3-pyridin-3-yl-urea] | 59.8 |
| CSc1c(Cl)nc(-c2ccc(NC(=O)Nc3ccc(N4CCOCC4)c(F)c3)cc2)nc1N1CCOCC1 [MTR-0211, 1-[4-(4-Chloro-5-methylsulfanyl-6-morpholin-4-yl-pyrimidin-2-yl)-phenyl]-3-(3-fluoro-4-morpholin-4-yl-phenyl)-urea] | 42 |
| CSc1cnc(-c2ccc(NC(=O)Nc3cccnc3)cc2)nc1N1CCOCC1 [MTR-0225, 1-[4-(5-Methylsulfanyl-4-morpholin-4-yl-pyrimidin-2-yl)-phenyl]-3-pyridin-3-yl-urea] | 43.8 |
| CSc1cnc(-c2ccc(NC(=O)Nc3ccc(N4CCOCC4)c(F)c3)cc2)nc1N1CCOCC1 [MTR-0226, 1-(3-Fluoro-4-morpholin-4-yl-phenyl)-3-[4-(5-methylsulfanyl-4-morpholin-4-yl-pyrimidin-2-yl)-phenyl]-urea] | 45.7 |
| COc1cnc(-c2ccc(NC(=O)Nc3cccnc3)cc2)nc1N1CCOCC1 [MTR-0228, 1-[4-(5-Methoxy-4-morpholin-4-yl-pyrimidin-2-yl)-phenyl]-3-pyridin-3-yl-urea] | 74.4 |
| CSc1c(Cl)nc(-c2ccc(NC(=O)Nc3ccc(N4CCN(C)CC4)nc3)cc2)nc1N1CCOCC1 [MTR-0236, 1-[4-(4-Chloro-5-methylsulfanyl-6-morpholin-4-yl-pyrimidin-2-yl)-phenyl]-3-[6-(4-methyl-piperazin-1-yl)-pyridin-3-yl]-urea] | 61.2 |
| COc1cnc(-c2ccc(NC(=O)Nc3ccc(N4CCOCC4)c(F)c3)cc2)nc1N1CCOCC1 [MTR-0242, 1-(3-Fluoro-4-morpholin-4-yl-phenyl)-3-[4-(5-methoxy-4-morpholin-4-yl-pyrimidin-2-yl)-phenyl]-urea] | 96.3 |

Continued, values first:

| inhibition at 0.5 µM [%] | Compound |
| --- | --- |
| 42.6 | CCOC(=O)c1nc(-c2ccc(NC(=O)Nc3cccnc3)cc2)nc(N2CCOCC2)c1OCC [MTR-0205, 5-Ethoxy-6-morpholin-4-yl-2-[4-(3-pyridin-3-yl-ureido)-phenyl]-pyrimidine-4-carboxylic acid ethyl ester] |
| 53.6 | CSc1c(Cl)nc(-c2ccc(NC(=O)Nc3ccc(N4CCN(C)CC4)cc3)cc2)nc1N1CCOCC1 [MTR-0215, 1-[4-(4-Chloro-5-methylsulfanyl-6-morpholin-4-yl-pyrimidin-2-yl)-phenyl]-3-[4-(4-methyl-piperazin-1-yl)-phenyl]-urea] |
| 44.3 | CCOC(=O)c1nc(-c2ccc(NC(=O)Nc3ccc(N4CCOCC4=O)cc3)cc2)nc(N2CCOCC2)c1OCC [MTR-0222, 5-Ethoxy-6-morpholin-4-yl-2-(4-{3-[4-(3-oxo-morpholin-4-yl)-phenyl]-ureido}-phenyl)-pyrimidine-4-carboxylic acid ethyl ester] |
| 87 | CSc1cnc(-c2ccc(NC(=O)Nc3ccc(N4CCOCC4=O)cc3)cc2)nc1N1CCOCC1 [MTR-0227, 1-[4-(5-Methylsulfanyl-4-morpholin-4-yl-pyrimidin-2-yl)-phenyl]-3-[4-(3-oxo-morpholin-4-yl)-phenyl]-urea] |
| 94.8 | COc1cnc(-c2ccc(NC(=O)Nc3ccc(N4CCOCC4=O)cc3)cc2)nc1N1CCOCC1 [MTR-0241, 1-[4-(5-Methoxy-4-morpholin-4-yl-pyrimidin-2-yl)-phenyl]-3-[4-(3-oxo-morpholin-4-yl)-phenyl]-urea] |
